Assay results as given in patent US20220241208A1, “PHARMACEUTICAL COMPOSITIONS FOR THE TREATMENT OF HBV” (priority 2019, published 2022).
Blank lines part the entries; values can stand above or below the compound they belong to.

Experiments:
HBV [1] = assay: Study 211: open-label extension study of Compound 1 + Nrtl combination therapy; parameters: species or system human; conditions: in vivo
Description: Compound 1 was investigated in an open-label, extension study (Study 211) to evaluate the safety and efficacy of combination therapy and Compound 1's effect on sustained viral response biomarkers. […] Study 211 utilized the four assays described in Studies 201 and 202.
Participants with chronic HBV who were currently not being treated received Compound 1 along with SOC NUC (entecavir [ETV]) tablets orally for 24 weeks. Eligible participants entered a separate extension study after Week 24 to continue open-label Compound 1 for up to an additional year.

[2] = SGF/FaSSIF two-stage gastric transfer non-sink dissolution test; assay type: physicochemical; conditions: dosed dry (SDD dry powder or API), 30 min SGF, then FaSSIF pH 6.8
Experimental: In-vitro drug dissolution performance for each SDD prepared in Example 1 and described in Table 1 (i.e., Formulations 1-4) was evaluated by a two-stage gastric transfer non-sink dissolution test, which stimulates pH and bile salt concentrations for both gastric and intestinal exposure. A drug product sample start in 0.1N HCl(aq) (simulated gastric fluid or SGF) for 30 minutes at which point an equal volume of concentrated fasted-state simulated intestinal fluid (FaSSIF) is added to the SGF, resulting in a final pH of 6.8 in FaSSIF (100 mM PBS, 2.24 mg/mL SIF, Biorelevant Inc.).
The dissolution performance of the SDDs of Formulations 1-4 and crystalline Compound 1 was tested. The dissolution test is used to measure the supersaturation of drug above the bulk crystalline Compound 1 solubility in biorelevant intestinal media (FaSSIF) after 30 minutes exposure to a low-pH environment (SGF). During the test, samples were transferred from SGF [theoretical Cmax=1000 μA/mL] to FaSSIF SGF [theoretical Cmax=500 μA/mL].
The dissolution performance of the jet-milled material and crystalline Compound 1 was tested in a non-sink dissolution test, to measure the supersaturation of the drug above the bulk crystalline Compound 1 solubility in biorelevant intestinal media (FaSSIF) after 30 minutes exposure to a low-pH environment (SGF). During the test, samples were transferred from SGF to FaSSIF SGF. […]

HBV [3] = assay: Study 202: Compound 1+ETV vs placebo+ETV in treatment-naive HBeAg positive viremic chronic hepatitis B subjects; assay type: in vivo, human; conditions: Tx naïve HBeAg+ subjects
Experimental: In this study (also referred to as study 202), 25 treatment-naive HBeAg positive […] subjects are randomized 1:1 (Group 1: […] FIG. 1 depicts a flow chart of the study. […] Subjects (Group 2) with chronic HBV who are currently not being treated receive matching placebo along with SOC NUC (entecavir [ETV]) tablets orally for 24 weeks. Subjects receive SOC NUC (0.5 mg QD of ETV) orally as per approved package insert and matching QD placebo tablets orally. […] Subjects return to the clinic at weeks (wk) 2 and 4 and then monthly up to wk 24. Clinical labs, safety and PK are monitored, as well as HBV biomarkers including HBV DNA, HBV RNA, HBsAg and HBeAg. At weeks 12 and 24, longitudinal serum samples are assayed for detectable virus. Compound 1 is abbreviated as C1 in the tables and figures.

[4] = listed as Crystalline Compound 1

SMILES: O=C(NCc1cnc(C(F)(F)F)s1)c1ccc2c(c1)NC(=O)c1ccccc1S2(=O)=O [Compound 1, 11-oxo-N-((2-(trifluoromethyl)thiazol-5-yl)methyl)-10,11-dihydrodibenzo[b,f][1,4]thiazepine-8-carboxamide 5,5-dioxide]
effect on pgRNA levels (HBV [1]): multi-log reduction in pgRNA levels

AUC35-210FaSSIF (area under the curve after transfer to FaSSIF from 35 to 210 minutes) [2]: 5400 min * μgA/mL | C210 (drug concentration at 180 minutes after transfer to FaSSIF) [2]: 29.6 μgA/mL | Cmax FaSSIF (maximum drug concentration after transfer to FaSSIF) [2]: 38.0 μgA/mL
SMILES: O=C(NCc1cnc(C(F)(F)F)s1)c1ccc2c(c1)NC(=O)c1ccccc1S2(=O)=O [Compound 1-Jet Mill, 11-oxo-N-((2-(trifluoromethyl)thiazol-5-yl)methyl)-10,11-dihydrodibenzo[b,f][1,4]thiazepine-8-carboxamide 5,5-dioxide]

SMILES: C=C1[C@H](CO)[C@@H](O)C[C@@H]1n1cnc2c(=O)[nH]c(N)nc21 [ETV, entecavir]
HBV DNA mean log10 decline (HBV [3]; Week 12): 3.29 log10 IU/mL | HBV RNA mean log10 decline (HBV [3]; Week 12): 0.44 log10 copies/mL | HBV DNA mean log10 decline (HBV [3]; Week 24): 3.99 log10 IU/mL | HBV RNA mean log10 decline (HBV [3]; Week 24): 0.61 log10 copies/mL

AUC35-210FaSSIF (area under the curve after transfer to FaSSIF from 35 to 210 minutes) [2]: 5300 min * μgA/mL | C210 (drug concentration at 180 minutes after transfer to FaSSIF) [2]: 27.6 μgA/mL | Cmax FaSSIF (maximum drug concentration after transfer to FaSSIF) [2]: 33.4 μgA/mL | AUC35-210FaSSIF (area under the curve after transfer to FaSSIF from 35 to 210 minutes) [2, 4]: 5300 min * μgA/mL | Cmax FaSSIF (maximum drug concentration after transfer to FaSSIF) [2, 4]: 33.4 μgA/mL
SMILES: O=C(NCc1cnc(C(F)(F)F)s1)c1ccc2c(c1)NC(=O)c1ccccc1S2(=O)=O [Formulation 5, 11-oxo-N-((2-(trifluoromethyl)thiazol-5-yl)methyl)-10,11-dihydrodibenzo[b,f][1,4]thiazepine-8-carboxamide 5,5-dioxide]
